For three compounds, IC50 results are on record in BindingDB's records for doi:10.1016/s0960-894x(02)00206-8 (Bristol-Myers Squibb, 2002).

This experiment in a line: In vitro C-C chemokine receptor type 3 activity of compound by using eotaxin induced human eosinophil chemotaxis assay.

As a reminder, the IC50 is the concentration needed to halve the response being measured. A low value points to higher potency. In the case of `N#Cc1cccc(NC(=O)NCCCN2CCC(Cc3ccc(Cl)cc3)CC2)c1` [1-{3-[4-(4-Chloro-benzyl)-piperidin-1-yl]-propyl}-3-(3-cyano-phenyl)-urea], the 50% inhibitory concentration (IC50) stood at 200 nM.
Next, `N#Cc1cccc(NC(=O)NCCCN2CCC(Cc3ccc(F)cc3)CC2)c1` [1-(3-Cyano-phenyl)-3-{3-[4-(4-fluoro-benzyl)-piperidin-1-yl]-propyl}-urea]: 80 nM.
`CC[C@H](O)[C@H]1C[C@@H](Cc2ccccc2)CCN1CCCNC(=O)Nc1cccc(C(C)=O)c1` [1-(3-Acetyl-phenyl)-3-{3-[(2R,4S)-4-benzyl-2-((S)-1-hydroxy-propyl)-piperidin-1-yl]-propyl}-urea] came in with an IC50 of 20 nM.
